Experiment [1] can be described thus: Binding affinity to HIV-1 RNA by SPR analysis. Also on record: species or system Human immunodeficiency virus 1.
The target of experiment [2] is microRNA 21. The experiment can be described thus: Inhibition of pre-miR-21 biogenesis in human Triple-negative breast cancer cell. The experiment is classed as cell-based.
Experiment [3] concerns the target microRNA 21. Description: Binding affinity to pre-miR-21 (unknown origin). The experiment is classed as nucleic-acid assay.
For experiment [4], the target named is microRNA 21. Description: Inhibition of pre-miR-21 biogenesis in human MDA-MB-231 cells. The experiment is classed as cell-based.
Experiment [5] in a line: Binding affinity to Escherichia coli ThiM TPP riboswitch.
The target of the next experiment is Bacterial 70S ribosome. Description: Inhibition of Mycobacterium smegmatis ribosomes assessed as inhibition of translation activity. The experiment is classed as subcellular, Mycolicibacterium smegmatis.
In experiment [6] the target is T1, Sulfhydryl oxidase 1 (Homo sapiens) (UniProt O00391).
T1 sequence (whole entry): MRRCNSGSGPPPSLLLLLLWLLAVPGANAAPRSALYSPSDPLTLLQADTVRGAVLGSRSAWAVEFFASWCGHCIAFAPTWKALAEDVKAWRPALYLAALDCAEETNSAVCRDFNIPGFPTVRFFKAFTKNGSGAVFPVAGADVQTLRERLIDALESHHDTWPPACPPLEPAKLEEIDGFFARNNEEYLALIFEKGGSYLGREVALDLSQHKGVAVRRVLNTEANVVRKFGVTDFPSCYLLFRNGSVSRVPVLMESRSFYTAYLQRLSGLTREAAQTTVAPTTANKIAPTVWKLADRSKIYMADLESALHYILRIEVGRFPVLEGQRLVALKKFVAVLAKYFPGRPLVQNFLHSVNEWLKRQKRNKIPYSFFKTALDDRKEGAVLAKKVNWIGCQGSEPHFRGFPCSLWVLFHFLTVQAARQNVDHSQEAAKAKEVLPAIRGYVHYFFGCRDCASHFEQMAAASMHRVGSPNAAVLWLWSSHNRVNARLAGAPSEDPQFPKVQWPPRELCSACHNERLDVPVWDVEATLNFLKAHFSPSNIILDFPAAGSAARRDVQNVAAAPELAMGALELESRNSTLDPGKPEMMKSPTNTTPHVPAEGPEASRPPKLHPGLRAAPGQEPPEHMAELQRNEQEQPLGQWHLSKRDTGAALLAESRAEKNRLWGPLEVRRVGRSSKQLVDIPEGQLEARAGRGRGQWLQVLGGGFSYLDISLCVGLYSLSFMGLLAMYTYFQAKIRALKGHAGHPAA
Description: Inhibition of QSOX1 in human MDA-MB-231 cells at 20 uM relative to control. The experiment is classed as cell-based.

Experiment [7] relates to Escherichia coli. The experiment can be described thus: Antibacterial activity against Escherichia coli assessed as bacterial growth inhibition. The experiment is classed as functional.
The test system of another experiment is Staphylococcus aureus. The experiment can be described thus: Antibacterial activity against Staphylococcus aureus assessed as bacterial growth inhibition. The experiment is classed as functional.
Experiment [8] in a line: Binding affinity to pri-miR-96 (unknown origin).
A short description of experiment [9]: Inhibition of pri-miR-96 biogenesis in human MDA-MB-231 cells. The experiment is classed as cell-based.
The next experiment addresses RNA. Description: Binding affinity to RNA (unknown origin) by fluorescence based analysis. The experiment is classed as nucleic-acid assay.
The next experiment has as its system Influenza B virus. Description: Antiviral activity against Influenza B virus assessed as inhibition of virus-induced cytopathic effect. The experiment is classed as functional, organism-based. In general terms: Cytopathic effects are the visible damage that an infection or toxin causes in cultured cells.
The nature of experiment [10]: Binding affinity to influenza A virus RNA by one-dimensional NMR spectroscopy method.
A further experiment has as its system Influenza A virus. The experiment can be described thus: Antiviral activity against Influenza A virus assessed as inhibition of virus-induced cytopathic effect. The experiment is classed as functional, organism-based.
Experiment [11] in a line: Binding affinity to HIV1 TAR RNA assessed as inhibition of Tat-mediated transactivation. The experiment is classed as functional, Human immunodeficiency virus 1.
Experiment [12] can be described thus: Inhibition of pre-miR-372 biogenesis in human AGS cells. The experiment is classed as cell-based.
The nature of experiment [13]: Binding affinity to pre-miR-372 (unknown origin).
Experiment [14] in a line: Binding affinity to bacteria RNA by HTS method.
The target in another experiment is T2, Sulfhydryl oxidase 1 (Homo sapiens, UniProt O00391).
T2 sequence (O00391 whole entry): T1 sequence (whole entry)
The experiment can be described thus: Binding affinity to QSOX1 in human MDA-MB-231 cells. The experiment is classed as cell-based.

Experiment [15] relates to Escherichia coli. The experiment can be described thus: Binding affinity to Escherichia coli ThiM TPP riboswitch assessed as inhibition of conformational switching.

Values after ≈ are worked out from the molar mass of the structure shown.

One may read the Kd as the constant that tells how readily two partners part at equilibrium. A lower Kd goes with tighter binding. Turning to `COc1ccc2nc3cc(F)ccc3c(Nc3ccc(C(=O)Nc4ccncc4)cc3)c2c1`, binding in experiment [1] was put at a Kd of 1 µM. For orientation: IC50 means the concentration needed to halve the response being measured. With `CN1CCN(c2ccc(-c3ccc4nc(-c5ccc(OCCCC(=O)N6CCN(c7nncc8sccc78)CC6)cc5)[nH]c4c3)cc2)CC1`, the IC50 against microRNA 21 [2] and against microRNA 21 [4] was approximately 1 µM each time. The same compound came in with an equilibrium dissociation constant (Kd) at microRNA 21 [3] of 0.352 µM. With `c1cc(N2CCNCC2)ccn1`, binding in [5] was characterised by a dissociation constant (Kd) of 620 µM. In [1], `COc1ccc2nc3cc(F)ccc3c(N)c2c1` returned a Kd of 59 µM. On to `Cc1nc(CN2CCN(Cc3csc(-c4ccccc4)n3)CC2)cs1`, for which the half-inhibitory concentration (IC50) on Bacterial 70S ribosome stood at 9.1 µM. The term inhibition denotes the relative decrease from the control value, in per cent. Low values mean little suppression, high ones strong suppression. `C#CCCC1(CCC(=O)N(C)[C@H]2CC[C@@H](c3ccc(Cl)c(Cl)c3)c3ccccc32)N=N1` gave an inhibition in experiment [6] of 15%. A word on the MIC: it is the least concentration at which growth counts as inhibited. On to `CN(C)CCCOc1ccc(C(NC(=O)c2ccc(-c3cccc(NC(=O)c4ccc(-c5ccccc5)cc4)c3)o2)C(=O)N2CCNCC2)cc1` (centres undefined), for which the minimal inhibitory concentration (MIC) in the experiment on Escherichia coli [7] worked out at 6 µM (≈ 4.11 µg/mL); in the experiment with Staphylococcus aureus, 3 µM (≈ 2.06 µg/mL). In the case of `CN1CCN(c2ccc3nc(-c4ccc5[nH]c(-c6cccc(OCCCC(=O)NCCN=[N+]=[N-])c6)nc5c4)[nH]c3c2)CC1`, in experiment [8], binding was put at a Kd of 1.3 µM. The half-maximal inhibitory concentration (IC50) in experiment [9] is approximately 0.02 µM. In turn, `Nc1nc2[nH]nc(N)n2n1` displayed a dissociation constant (Kd) on RNA of 370 µM.

In turn, `Nc1csc(Br)n1` registered a Kd at RNA of 650 µM.

`CCc1nc2cc3ccccc3cc2cc1C(=O)N(C)[C@@H](CCn1cc(C[C@@H](C(=O)N2CCC[C@H]2C(=O)N(C)[C@@H](Cc2ccccc2)C(=O)NCCCN)N(C)C(=O)c2cc3cc4ccccc4cc3nc2CC)nn1)C(=O)N1CCC[C@H]1C(=O)N(C)[C@@H](Cc1ccccc1)C(=O)NCCCN`: the Kd in [1] amounted to 0.016 µM. In [8], `CN1CCN(c2ccc3nc(-c4cc(C(C)(C)C)c(OCCCC(=O)NCCCN=[N+]=[N-])c(C(C)(C)C)c4)[nH]c3c2)CC1` had a Kd of 1.5 µM.

One may read the EC50 as the concentration at which the effect is half-maximal. Turning to `COc1cc2nc(N3CCNCC3)nc(N)c2cc1OC` [AMINODIMETHOXYQUINAZOLINYLPIPERAZINE], the 50% effective concentration (EC50) with Influenza B virus and in the experiment on Influenza A virus was 71 µM each time. This compound also returned a dissociation constant (Kd) in [10] of 50 µM. Regarding `NC1=Nc2cccc3cccc(c23)N1`, the IC50 in experiment [11] worked out at 50 µM.

In the case of `O=c1[nH]cccc1-c1nc(-c2cccc(Cl)c2)no1`, the IC50 in [12] is approximately 1 µM. In experiment [13], the Kd is 0.3 µM. On to `Nc1ccc2nc(N)nc(N)c2c1` [QUINAZOLINE-2,4,6-TRIAMINE], for which the IC50 in [11] came out at 40 µM.

In experiment [8], `CCCN(CC(=O)N(CCC)CC(=O)N(CC(N)=O)Cc1cn(CCCNC(=O)CCCOc2c(C(C)(C)C)cc(-c3nc4cc(N5CCN(C)CC5)ccc4[nH]3)cc2C(C)(C)C)nn1)C(=O)CCCOc1cccc(-c2nc3ccc(-c4nc5ccc(N6CCN(C)CC6)cc5[nH]4)cc3[nH]2)c1` yielded a Kd of 0.085 µM. Besides, in experiment [9], the IC50 is approximately 0.05 µM. At RNA, `Nc1ccnc(N)n1` [DIAMINOPYRIMIDINE] registered a dissociation constant (Kd) of 80 µM. As to `Nc1ccc2nccnc2c1`, the Kd in [5] was 22 µM.

`CNCc1cc2cccnc2s1` displayed a Kd in experiment [5] of 60 µM.

Take `NCC[C@@H](NC(=O)c1ccc(-c2cccc(NC(=O)c3ccc4nc(O)c(O)nc4c3)c2)o1)C(=O)N1CCNCC1`: the affinity in [14], expressed as Kd, was 6.5 µM. For `CCOC(=O)C1=C(Nc2ccccc2)S/C(=C\c2ccc(OCCOCCOCCOCCNC(=O)CCC(=O)N(C)[C@H]3CC[C@@H](c4ccc(Cl)c(Cl)c4)c4ccccc43)c(O)c2)C1=O`, binding at Sulfhydryl oxidase 1 was put at a Kd of 16 µM. With `Nc1ccc2ccnc(N)c2c1`, in experiment [11], the IC50 stood at 150 µM.

`CCN1CCN(Cc2csc(-c3ccccc3)n2)CC1`: on Bacterial 70S ribosome, the 50% inhibitory concentration (IC50) amounted to 2.8 µM.

Turning to `CN1CCN(c2ccc(-c3ccc4nc(-c5ccc(OCCCC(=O)CCCN=[N+]=[N-])cc5)[nH]c4c3)cc2)CC1`, binding on microRNA 21 [3] was characterised by a dissociation constant (Kd) of 18 µM. The compound `Cc1ncc(CN=[N+]=[N-])cn1` registered a Kd in [5] of 49 µM.

`CCc1nc2ccccc2cc1C(=O)N[C@@H](CSSC[C@H](NC(=O)c1cc2ccccc2nc1CC)C(=O)N1CCC[C@H]1C(=O)N[C@@H](Cc1ccccc1)C(=O)NCCCCCC(N)=O)C(=O)N1CCC[C@H]1C(=O)N[C@@H](Cc1ccccc1)C(=O)NCCCCCC(N)=O` registered a Kd in experiment [1] of 4.1 µM. Regarding `OCc1ccc2nsnc2c1`, in experiment [5], the affinity, expressed as Kd, was 56 µM. For the compound `c1cc(N2CCNCC2)c(NCc2ccc3nccnc3c2)cn1`, the K in the experiment with Escherichia coli [15] was found to be 68 µM. The same compound yielded a Kd in [5] of 0.068 µM. `Cc1nc(N)nc(N)n1` returned a Kd on RNA of 110 µM.

Source of the values: ChEMBL document CHEMBL5338781, “Fragment-Based Approaches to Identify RNA Binders” (J Med Chem, 2023).
